Values quoted from earlier work in patent US20070293529A1, “Tetrasubstituted ureas as modulators of 11-beta hydroxyl steroid dehydrogenase type 1” (priority 2006, published 2007).

Columns and labels:
[1] = system: pancreatic islet cells of ob/ob mice
11βHSD1 in the eye = molecular target: T1, 11βHSD1 in the eye (Homo sapiens, UniProt P28845); details: healthy volunteers, after seven days of carbenoxolone treatment
T1 construct: host or cells: endogenous enzyme in the eye (NPE cells) of the treated volunteers

11βHSD1 = molecular target: T2, 11βHSD1 (Homo sapiens, UniProt P28845); details: two randomized, double-blind, placebo-controlled crossover studies
T2 construct: host or cells: endogenous enzyme of the treated subjects (brain)

[2] = system: primary hippocampal cells

T2 sequence (P28845 whole entry): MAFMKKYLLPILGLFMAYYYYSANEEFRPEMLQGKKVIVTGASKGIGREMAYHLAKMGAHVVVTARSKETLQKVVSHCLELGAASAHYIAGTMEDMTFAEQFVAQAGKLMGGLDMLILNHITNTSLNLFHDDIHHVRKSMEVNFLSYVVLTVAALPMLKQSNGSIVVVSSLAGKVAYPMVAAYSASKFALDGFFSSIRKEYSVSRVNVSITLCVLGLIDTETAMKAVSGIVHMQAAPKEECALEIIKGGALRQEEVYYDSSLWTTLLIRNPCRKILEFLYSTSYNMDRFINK
T1 sequence (P28845 whole entry): as above

reduction of intra-ocular pressure (IOP) (11βHSD1 in the eye): 18%
SMILES: CC1(C)[C@@H](OC(=O)CCC(=O)O)CC[C@]2(C)[C@H]3C(=O)C=C4[C@@H]5C[C@@](C)(C(=O)O)CC[C@]5(C)CC[C@@]4(C)[C@]3(C)CC[C@@H]12 [carbenoxolone]
glucose-stimulated insulin release [1]: improves glucose-stimulated insulin release | verbal fluency and verbal memory (11βHSD1): improved verbal fluency and verbal memory | protection from glucocorticoid-mediated exacerbation of excitatory amino acid neurotoxicity [2]: protects the cells from glucocorticoid-mediated exacerbation of excitatory amino acid neurotoxicity | negative effects of glucocorticoids on bone nodule formation (bone nodule formation): attenuate the negative effects of glucocorticoids on bone nodule formation
